Experimental findings from ChEMBL document CHEMBL3232710, “Pyrroloquinolinone-based dual topoisomerase I/II inhibitor” (2014) are described below.

For experiment [1], the system named is HeLa. In words: Growth inhibition of human HeLa cells after 72 hrs by trypan blue assay. Format: functional.
The subject of the next experiment is HL-60. Nature of the experiment: Growth inhibition of human HL60 cells after 72 hrs by trypan blue assay. Format: functional. The conditions noted are these: HL-60, 72 h.
In a further experiment the test system is A-431. In words: Growth inhibition of human A431 cells after 72 hrs by trypan blue assay. The format is functional. The settings on record: A-431, 72 h.
The test system of a further experiment is Nucleic Acid. In words: Binding affinity to salmon testes DNA assessed as intercalation at compound to DNA ratio of 0.04 by linear dichroism analysis. Format: nucleic-acid assay. The conditions noted are these: Salmonidae.
Experiment [2] concerns the target DNA topoisomerase 2-alpha (Homo sapiens) (UniProt P11388). In words: Inhibition of human recombinant topoisomerase 2-alpha-mediated pBR322 DNA relaxation at 50 uM after 60 mins by agarose gel electrophoresis.
Experiment [3] has the same target. Nature of the experiment: Inhibition of human recombinant topoisomerase 2-alpha-mediated pBR322 DNA relaxation at 20 uM after 60 mins by agarose gel electrophoresis.
Experiment [4] has the same target. In words: Inhibition of human recombinant topoisomerase 2-alpha-mediated pBR322 DNA cleavage at 100 uM after 60 mins by agarose gel electrophoresis.
The species entered for a further experiment is Bos taurus. Nature of the experiment: Inhibition of calf thymus topoisomerase-1-mediated pBR322 DNA relaxation after 60 mins by agarose gel electrophoresis.
The test system of experiment [5] is HeLa. Nature of the experiment: Induction of apoptosis in human HeLa cells assessed as DNA fragmentation at 100 uM after 24 hrs by agarose gel electrophoresis. The format is functional, cell-based.

The source made the active and inactive calls. The rule behind the calls is not given here. Some results are limits rather than exact numbers.

Chain of DNA topoisomerase 2-alpha (Homo sapiens) (P11388 whole entry): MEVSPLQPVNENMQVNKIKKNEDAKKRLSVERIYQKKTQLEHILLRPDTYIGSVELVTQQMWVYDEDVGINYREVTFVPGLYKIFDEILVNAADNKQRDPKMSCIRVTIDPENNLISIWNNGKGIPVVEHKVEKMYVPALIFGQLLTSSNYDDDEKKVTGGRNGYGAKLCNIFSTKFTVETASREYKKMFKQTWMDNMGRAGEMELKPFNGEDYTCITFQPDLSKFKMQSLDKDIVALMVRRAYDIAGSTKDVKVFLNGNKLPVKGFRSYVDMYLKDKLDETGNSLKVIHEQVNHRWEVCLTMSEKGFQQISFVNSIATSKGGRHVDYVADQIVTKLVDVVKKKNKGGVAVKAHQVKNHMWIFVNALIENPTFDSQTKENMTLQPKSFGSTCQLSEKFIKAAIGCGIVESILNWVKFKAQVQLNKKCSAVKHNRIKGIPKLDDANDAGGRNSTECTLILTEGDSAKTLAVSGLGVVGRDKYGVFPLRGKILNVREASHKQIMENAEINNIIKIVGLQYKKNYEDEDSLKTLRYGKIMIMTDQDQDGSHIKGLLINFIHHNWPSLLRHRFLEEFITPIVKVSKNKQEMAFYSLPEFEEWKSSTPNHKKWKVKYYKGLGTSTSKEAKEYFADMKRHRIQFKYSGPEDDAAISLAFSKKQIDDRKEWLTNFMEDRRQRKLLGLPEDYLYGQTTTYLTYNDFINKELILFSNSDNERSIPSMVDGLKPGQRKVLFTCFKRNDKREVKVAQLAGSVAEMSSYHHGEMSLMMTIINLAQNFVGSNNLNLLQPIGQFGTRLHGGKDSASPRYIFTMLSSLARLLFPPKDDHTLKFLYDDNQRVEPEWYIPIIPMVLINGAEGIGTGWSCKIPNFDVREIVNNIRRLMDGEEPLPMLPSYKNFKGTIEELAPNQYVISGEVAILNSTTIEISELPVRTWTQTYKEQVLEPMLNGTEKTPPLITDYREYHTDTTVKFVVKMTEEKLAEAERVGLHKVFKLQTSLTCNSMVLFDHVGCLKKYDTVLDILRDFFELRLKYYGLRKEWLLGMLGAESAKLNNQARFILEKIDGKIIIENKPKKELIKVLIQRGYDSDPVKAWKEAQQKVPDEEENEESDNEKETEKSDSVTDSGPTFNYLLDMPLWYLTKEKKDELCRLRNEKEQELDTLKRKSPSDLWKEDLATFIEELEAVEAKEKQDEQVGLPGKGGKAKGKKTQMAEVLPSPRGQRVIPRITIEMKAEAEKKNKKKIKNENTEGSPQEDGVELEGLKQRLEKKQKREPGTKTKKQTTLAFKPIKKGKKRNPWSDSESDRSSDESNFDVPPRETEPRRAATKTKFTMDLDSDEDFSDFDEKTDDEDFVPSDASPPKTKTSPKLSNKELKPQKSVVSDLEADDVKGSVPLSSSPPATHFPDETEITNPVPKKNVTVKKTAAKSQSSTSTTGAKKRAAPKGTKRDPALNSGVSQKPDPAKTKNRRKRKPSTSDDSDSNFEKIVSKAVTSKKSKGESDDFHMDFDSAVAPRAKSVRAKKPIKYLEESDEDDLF

For the compound `Cc1c2ccncc2c(C)c2c1[nH]c1ccccc12` [ELLIPTECINE], the 50% growth inhibitory concentration (GI50) in the experiment on HeLa [1] stood at 0.3 µM; in the experiment with HL-60, 2 µM; in the experiment with A-431 it was 3.2 µM.
Consider `Cc1cc(=O)n2c(C)cc3c(OCCCNCCN(C)C)ccc1c32`, for which the values for the concentration for 50% growth inhibition (GI50) in the experiment on HL-60 and in the experiment with A-431 were greater than 50 µM and 14.5 µM, respectively. The outcome in the experiment on Nucleic Acid was Active. Also, the inhibition entry in experiment [2] is “inactive”.
Regarding `Cc1cc(=O)n2c(C)cc3c(OCCNCCN(C)C)ccc1c32`, the concentration for 50% growth inhibition (GI50) with HeLa [1] was greater than 50 µM; with HL-60, 25.7 µM; with A-431 it was 7.5 µM. Further, the result in the experiment with Nucleic Acid was Active. Besides, the inhibition entry in [2] is “Active”.
For `Cc1cc(=O)n2c(C)cc3c(OCCCCN(C)C)ccc1c32`, the figures for the concentration for 50% growth inhibition (GI50) in the experiment with HeLa [1], with HL-60 and with A-431 were greater than 50 µM, greater than 50 µM and 41.3 µM, respectively. Besides, in the experiment with Nucleic Acid, the outcome was Active. In addition, the inhibition result in experiment [3] and in experiment [2] was “inactive” throughout.
Take `Cc1cc(=O)n2c(C)cc3c(OCCCCNCCN(C)C)ccc1c32`: the inhibition entry in [4] and in [2] was “Active” each time. For the same compound, the inhibition result in the experiment listed under Bos taurus was “Dose-dependent effect”. The values for the concentration for 50% growth inhibition (GI50) with HeLa [1], with HL-60 and with A-431 were 19.7 µM, 8.3 µM and 13.6 µM, respectively. Moreover, the outcome in the experiment with Nucleic Acid and in the experiment with HeLa [5] was Active. Further, the inhibition result in experiment [3] is “inactive”.
